Experimental data: the supplement of paper PMC11208160

Assay: recombinant barcode read abundance after kanamycin selection (control-corrected) (log10(CPM+1)); higher = more efficient recombination; sequences stand for … in AGTGCAGAGAAAATCGGCCAGTTTTCTCTGCCTGCAGTCCGCATGCCGT…AGATTTATGCAGCGGACTGCCTTTCTCCCAAAGTGATAAACCGGACAGTATCATGGACCGGTTTTCCCGGTAATCCGTATTTGCAAGGTTGGTTTCACT; site = the 11-nt target
Experimental: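 Pooled E. coli target-specificity screen for the IS621 bridge recombinase. Each library plasmid pairs an 11-nt target (CT core) with a bridge RNA whose target-binding loop (9-nt LTG + 4-nt RTG) is reprogrammed; the rest of the 177-nt WT IS621 bridge RNA scaffold is fixed. The plasmid is co-electroporated with a WT donor plasmid; recombinase is induced with 0.1 mM IPTG and recombinants are selected on kanamycin. Recombinant barcodes are sequenced, converted to CPM, averaged over two biological replicates and corrected by the unselected control CPM. Molecule = full bridge RNA written as DNA: LTG = specificity nt 1-9, RTG = reverse complement of specificity nt 8-11, in the WT scaffold.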
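Also: IS621 recombinase and bridge RNA in Escherichia coli cells.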

| Sequence | recombinant barcode read abundance (log10) |
| --- | --- |
| AAGCTTGCTTGGGTTCTAACCTGTTGCCT (site AAGCTTGCTAG) | 1.1 |
| AAGCTTGCTTGGGTTCTAACCTGTTGCCT (site CGATGGACTCA) | 0.315 |
| AAGGACGCTTGGGTTCTAACCTGTTGCCT (site AAGGACGCTAG) | 2.72 |
| AAGGACGCTTGGGTTCTAACCTGTTGCCT (site AAGGCCGCTAG) | 0.241 |
| AAGGACGCTTGGGTTCTAACCTGTTGCCT (site AAGGGCGCTAG) | 0.309 |
| AAGGACGCTTGGGTTCTAACCTGTTGCCT (site AAGGTCGCTAG) | 0.0217 |
| AAGGGTTCTTGGGTTCTAACCTGTTGCCA (site AAGGGTTCTTG) | 1.78 |
| AAGGGTTCTTGGGTTCTAACCTGTTGCCA (site ACGGGTACTTG) | 0.0285 |
| AAGGTTCCTTGGGTTCTAACCTGTTGCTA (site AAGGTCCCTTG) | 0.0242 |
| AAGGTTCCTTGGGTTCTAACCTGTTGCTA (site AAGGTTCCTTA) | 1.73 |
| AAGTACACTTGGGTTCTAACCTGTTGCTG (site AAGTACACTCA) | 2.75 |
| AAGTACACTTGGGTTCTAACCTGTTGCTG (site CGACTGTCTAG) | 0.0537 |
| AAGTGCTCTTGGGTTCTAACCTGTTGCCT (site AAGTGCTCTAG) | 2.34 |
| AAGTGCTCTTGGGTTCTAACCTGTTGCCT (site ACGTGCTCTAG) | 0.129 |
| AAGTGCTCTTGGGTTCTAACCTGTTGCCT (site AGGTGCTCTAG) | 0.124 |
| AAGTGCTCTTGGGTTCTAACCTGTTGCCT (site ATGTGCTCTAG) | 0.127 |
| AAGTGTCCTTGGGTTCTAACCTGTTGCAT (site AAGTGTCCTAT) | 1.73 |
| AAGTGTCCTTGGGTTCTAACCTGTTGCAT (site AAGTTTCCTAT) | 0.0208 |
| AAGTTTACTTGGGTTCTAACCTGTTGCTT (site AAGTTTACTAA) | 0.177 |
| AAGTTTACTTGGGTTCTAACCTGTTGCTT (site AAGTTTACTAG) | 0.0137 |
| AAGTTTCCTTGGGTTCTAACCTGTTGCGT (site AAGTTTCCTAC) | 0.923 |

| Sequence | recombinant barcode read abundance (log10) |
| --- | --- |
| AAGTTTCCTTGGGTTCTAACCTGTTGCGT (site ACGTTTCCTAT) | 0.102 |
| AATACCTCTTGGGTTCTAACCTGTTGCCT (site AATACCTCTAG) | 1.03 |
| AATACCTCTTGGGTTCTAACCTGTTGCCT (site ACTACCTCTAG) | 0.0183 |
| AATACCTCTTGGGTTCTAACCTGTTGCCT (site AGTACCTCTAG) | 0.0751 |
| AATACCTCTTGGGTTCTAACCTGTTGCCT (site ATTACCTCTAG) | 0.0243 |
| AATACTACTTGGGTTCTAACCTGTTGCCT (site AATACTACTAG) | 1.04 |
| AATACTACTTGGGTTCTAACCTGTTGCCT (site ACTACTACTAG) | 0.0229 |
| AATACTACTTGGGTTCTAACCTGTTGCCT (site AGTACTACTAG) | 0.0104 |
| AATACTACTTGGGTTCTAACCTGTTGCCT (site ATTACTACTAG) | 0 |
| AATACTACTTGGGTTCTAACCTGTTGCTG (site AATACTACTCA) | 0.256 |
| AATACTACTTGGGTTCTAACCTGTTGCTG (site AGTACTCCTCA) | 0.196 |
| AATAGTGCTTGGGTTCTAACCTGTTGCCT (site AATAGTGCTAG) | 0.203 |
| AATAGTGCTTGGGTTCTAACCTGTTGCCT (site ACTAGTGCTAG) | 0.101 |
| AATAGTGCTTGGGTTCTAACCTGTTGCCT (site AGTAGTGCTAG) | 0.176 |
| AATAGTGCTTGGGTTCTAACCTGTTGCCT (site ATTAGTGCTAG) | 0.045 |
| AATCGAACTTGGGTTCTAACCTGTTGCCT (site AATCGAACTAG) | 0.297 |
| AATCGAACTTGGGTTCTAACCTGTTGCCT (site GATCGAACTAG) | 0.15 |
| AATCTAACTTGGGTTCTAACCTGTTGCCT (site AATCTAACTAG) | 0.527 |
| AATCTAACTTGGGTTCTAACCTGTTGCCT (site GGCGCCTCTGC) | 0.538 |
| AATCTGTCTTGGGTTCTAACCTGTTGCGT (site AATCTGTCTAC) | 1.8 |
| AATCTGTCTTGGGTTCTAACCTGTTGCGT (site TAGCTGTCTAC) | 0.149 |

| Sequence | recombinant barcode read abundance (log10) |
| --- | --- |
| AATGATTCTTGGGTTCTAACCTGTTGCGT (site AATGATTCTAC) | 2.27 |
| AATGATTCTTGGGTTCTAACCTGTTGCGT (site GGGCCGGCTCG) | 0.433 |
| AATGCATCTTGGGTTCTAACCTGTTGCCT (site AATGAATCTAG) | 0.0891 |
| AATGCATCTTGGGTTCTAACCTGTTGCCT (site AATGCATCTAG) | 0.285 |
| AATGCATCTTGGGTTCTAACCTGTTGCCT (site AATGGATCTAG) | 0.054 |
| AATGCATCTTGGGTTCTAACCTGTTGCCT (site AATGTATCTAG) | 0.0299 |
| AATGCTACTTGGGTTCTAACCTGTTGCCA (site AAAACTACTTG) | 0.127 |
| AATGCTACTTGGGTTCTAACCTGTTGCCA (site AATGCTACTTG) | 0.266 |
| AATGGATCTTGGGTTCTAACCTGTTGCCT (site AATGAATCTAG) | 0.0825 |
| AATGGATCTTGGGTTCTAACCTGTTGCCT (site AATGCATCTAG) | 0.0416 |
| AATGGATCTTGGGTTCTAACCTGTTGCCT (site AATGGATCTAG) | 1.01 |
| AATGGATCTTGGGTTCTAACCTGTTGCCT (site AATGTATCTAG) | 0.0683 |
| AATGGGTCTTGGGTTCTAACCTGTTGCCT (site AATGGGACTAG) | 0.0612 |
| AATGGGTCTTGGGTTCTAACCTGTTGCCT (site AATGGGCCTAG) | 0.132 |
| AATGGGTCTTGGGTTCTAACCTGTTGCCT (site AATGGGGCTAG) | 0.04 |
| AATGGGTCTTGGGTTCTAACCTGTTGCCT (site AATGGGTCTAG) | 1.3 |
| AATTAAGCTTGGGTTCTAACCTGTTGCCT (site AATTAAGCTAG) | 1.28 |
| AATTAAGCTTGGGTTCTAACCTGTTGCCT (site AATTCAGCTAG) | 0.159 |
| AATTAAGCTTGGGTTCTAACCTGTTGCCT (site AATTGAGCTAG) | 0.088 |
| AATTAAGCTTGGGTTCTAACCTGTTGCCT (site AATTTAGCTAG) | 0.223 |
| AATTCACCTTGGGTTCTAACCTGTTGCCT (site AATTCACCTAG) | 0.454 |

| Sequence | recombinant barcode read abundance (log10) |
| --- | --- |
| AATTCACCTTGGGTTCTAACCTGTTGCCT (site CATTCACCTAG) | 0.0863 |
| AATTCACCTTGGGTTCTAACCTGTTGCCT (site GATTCACCTAG) | 0.0262 |
| AATTCACCTTGGGTTCTAACCTGTTGCCT (site TATTCACCTAG) | 0.129 |
| AATTCAGCTTGGGTTCTAACCTGTTGCCT (site AATTAAGCTAG) | 0.0713 |
| AATTCAGCTTGGGTTCTAACCTGTTGCCT (site AATTCAGCTAG) | 0.26 |
| AATTCAGCTTGGGTTCTAACCTGTTGCCT (site AATTGAGCTAG) | 0.164 |
| AATTCAGCTTGGGTTCTAACCTGTTGCCT (site AATTTAGCTAG) | 0.0408 |
| AATTCGGCTTGGGTTCTAACCTGTTGCCT (site AATTCGGCTAG) | 0.305 |
| AATTCGGCTTGGGTTCTAACCTGTTGCCT (site ACTGCGGCTAG) | 0.407 |
| AATTGTCCTTGGGTTCTAACCTGTTGCAT (site AATTGTCCTAA) | 0.296 |
| AATTGTCCTTGGGTTCTAACCTGTTGCAT (site AATTGTCCTAC) | 0.102 |
| AATTGTCCTTGGGTTCTAACCTGTTGCAT (site AATTGTCCTAG) | 0.0432 |
| AATTGTCCTTGGGTTCTAACCTGTTGCAT (site AATTGTCCTAT) | 0.249 |
| AATTGTCCTTGGGTTCTAACCTGTTGCCT (site AATTGTCCTAA) | 0.411 |
| AATTGTCCTTGGGTTCTAACCTGTTGCCT (site AATTGTCCTAC) | 0.0374 |
| AATTGTCCTTGGGTTCTAACCTGTTGCCT (site AATTGTCCTAG) | 0.407 |
| AATTGTCCTTGGGTTCTAACCTGTTGCCT (site AATTGTCCTAT) | 0.0177 |
| AATTTGACTTGGGTTCTAACCTGTTGCCT (site AAATTGACTAG) | 0.218 |
| AATTTGACTTGGGTTCTAACCTGTTGCCT (site AACTTGACTAG) | 0.0252 |
